Reference: DBAASP
Converted amounts (≈) assume the structure as drawn.

Key:
Assay in all cases: ≥ marks a high value that may be exact or a test limit, other limits are often not marked, values filed in µg/mL are converted to µM
[1] = system: Staphylococcus aureus ATCC 25923
[2] = system: Pseudomonas aeruginosa ATCC BAA-427
[3] = system: Candida parapsilosis ATCC 22019
[4] = system: Staphylococcus aureus ATCC 700698
[5] = system: Staphylococcus aureus ATCC 700699
Cryptococcus neoformans = system: Cryptococcus neoformans
[6] = system: Escherichia coli ATCC 9637
[7] = system: Staphylococcus aureus ATCC 29213
[8] = system: Candida albicans ATCC 10231
[9] = system: Klebsiella pneumoniae ATCC 27736
[10] = system: Bacillus subtilis ATCC 6633
[11] = system: Staphylococcus aureus ATCC 33592
[12] = system: Staphylococcus aureus ATCC BAA-44
Sporothrix schenckii = system: Sporothrix schenckii
[13] = system: Pseudomonas aeruginosa PAO1
[14] = system: Staphylococcus aureus USA 300
Escherichia coli UB1005 = system: Escherichia coli UB1005
Bacillus cereus C737 = system: Bacillus cereus C737
[15] = system: Limosilactobacillus fermentum ATCC 9338
[16] = system: Actinomyces naeslundii ATCC 12104
[17] = system: Lacticaseibacillus casei ATCC 393
[18] = system: Actinomyces viscosus ATCC 15987
[19] = system: Streptococcus gordonii DL1
[20] = system: Lactobacillus acidophilus ATCC 14931
[21] = system: Streptococcus sanguinis ATCC 10556
[22] = system: Streptococcus mutans UA159
[23] = system: Streptococcus gordonii ATCC 10558
[24] = system: Streptococcus oralis ATCC 9811
[25] = system: Pseudomonas aeruginosa 1131
[26] = system: Pseudomonas aeruginosa ATCC 25619
[27] = system: Acinetobacter baumannii ATCC BAA-1605
[28] = system: Pseudomonas aeruginosa 1109
[29] = system: Pseudomonas aeruginosa 1125
[30] = system: Pseudomonas aeruginosa ATCC 10145
[31] = system: Pseudomonas aeruginosa ATCC 35032
[32] = system: Pseudomonas aeruginosa ATCC 9721
[33] = system: Pseudomonas aeruginosa ATCC 9027
[34] = system: Acinetobacter baumannii NR-13382
[35] = system: Pseudomonas aeruginosa ATCC 15442
[36] = system: Acinetobacter baumannii ATCC 19606
[37] = system: Pseudomonas aeruginosa 1017
[38] = system: Acinetobacter baumannii ATCC BAA-747
[39] = system: Acinetobacter baumannii NR-9667
[40] = system: Pseudomonas aeruginosa ATCC BAA-1744
[41] = system: Pseudomonas aeruginosa ATCC 27853
[42] = system: Acinetobacter baumannii NR-13375
[43] = system: Acinetobacter baumannii NR-17784
[44] = system: Staphylococcus aureus USA 300 LAC
[45] = system: Escherichia coli ATCC 25922
[46] = system: Klebsiella pneumoniae ATCC 13883

## CC[C@H](C)[C@H](NC(=O)[C@H](C)NC(=O)CNC(=O)[C@H](CCCCN)NC(=O)[C@@H](NC(=O)[C@H](CC(C)C)NC(=O)[C@H](Cc1c[nH]c2ccccc12)NC(=O)CNC(=O)[C@H](Cc1ccccc1)NC(=O)[C@@H](N)Cc1ccccc1)[C@@H](C)CC)C(=O)N[C@@H](Cc1cnc[nH]1)C(=O)N[C@@H](C)C(=O)NCC(=O)N[C@@H](CCCCN)C(=O)N[C@@H](C)C(=O)N[C@H](C(=O)N[C@@H](Cc1cnc[nH]1)C(=O)N1CCC[C@H]1C(=O)N[C@@H](CC(C)C)C(=O)N[C@H](C(=O)N[C@@H](Cc1cnc[nH]1)C(=O)N[C@@H](CCCN=C(N)N)C(=O)N[C@@H](CCCN=C(N)N)C(=O)N[C@@H](CCCN=C(N)N)C(=O)N[C@@H](Cc1cnc[nH]1)C(=O)O)[C@@H](C)CC)[C@@H](C)CC [FFGWLIKGAIHAGKAIHPLIHRRRH]
[1]
  MIC: 3 µM (≈ 8.8 µg/mL)
[2]
  MIC: 6.8 µM (≈ 19.9 µg/mL)
[3]
  MIC: 13.6 µM (≈ 39.9 µg/mL)
[4]
  MIC: 3 µM (≈ 8.8 µg/mL)
[5]
  MIC: 3 µM (≈ 8.8 µg/mL)
Cryptococcus neoformans
  MIC: 13.6 µM (≈ 39.9 µg/mL)
[6]
  MIC: 3 µM (≈ 8.8 µg/mL)
[7]
  MIC: 6.8 µM (≈ 19.9 µg/mL)
[8]
  MIC: 13.6 µM (≈ 39.9 µg/mL)
[9]
  MIC: 13.6 µM (≈ 39.9 µg/mL)
[10]
  MIC: 3 µM (≈ 8.8 µg/mL)
[11]
  MIC: 1.6 µM (≈ 4.69 µg/mL)
[12]
  MIC: 3 µM (≈ 8.8 µg/mL)
Sporothrix schenckii
  MIC: 27.2 µM (≈ 79.8 µg/mL)

## CC[C@H](C)[C@H](NC(=O)[C@H](CC(=O)O)NC(=O)[C@H](Cc1ccccc1)NC(=O)[C@H](CC(C)C)NC(=O)CN)C(=O)N[C@H](C(=O)N[C@@H](CCCCN)C(=O)N[C@@H](CCCCN)C(=O)N[C@H](C(=O)N[C@H](C(=O)NCC(=O)N[C@@H](C)C(=O)N[C@@H](CC(C)C)C(N)=O)C(C)C)C(C)C)C(C)C [GLFDIVKKVVGAL]
[13]
  MIC: > 94.2 µM
[14]
  MIC: 11.8 µM (≈ 16 µg/mL)
Escherichia coli UB1005
  MIC: 23.6 µM (≈ 32 µg/mL)
Bacillus cereus C737
  MIC: ≥ 47.1 µM

## CC(C)C[C@H](NC(=O)CN)C(=O)N[C@@H](CC(C)C)C(=O)N[C@@H](Cc1c[nH]c2ccccc12)C(=O)N[C@@H](Cc1cnc[nH]1)C(=O)N[C@@H](CC(C)C)C(=O)N[C@@H](CC(C)C)C(=O)N[C@@H](Cc1cnc[nH]1)C(N)=O [GLLWHLLH]
[15]
  MIC: ≥ 130 µM
[16]
  MIC: ≥ 130 µM
[17]
  MIC: ≥ 64.8 µM
[18]
  MIC: ≥ 32.4 µM
[19]
  MIC: ≥ 518 µM
[20]
  MIC: ≥ 130 µM
[21]
  MIC: ≥ 518 µM
[22]
  MIC: ≥ 259 µM

## CC[C@H](C)[C@H](NC(=O)[C@H](CCC(N)=O)NC(=O)[C@H](CCC(=O)O)NC(=O)[C@H](CCCCN)NC(=O)[C@@H]1CCCN1C(=O)[C@H](CC(C)C)NC(=O)[C@H](CS)NC(=O)[C@H](CO)NC(=O)[C@H](CC(C)C)NC(=O)[C@@H](NC(=O)[C@H](C)NC(=O)[C@H](CS)NC(=O)[C@H](CCCN=C(N)N)NC(=O)CNC(=O)CNC(=O)CNC(=O)CNC(=O)[C@H](Cc1c[nH]c2ccccc12)NC(=O)[C@@H](NC(=O)[C@H](Cc1cnc[nH]1)NC(=O)[C@H](CCSC)NC(=O)CNC(=O)[C@@H]1CCCN1C(=O)[C@H](C)NC(=O)[C@H](CC(=O)O)NC(=O)[C@@H]1CCCN1C(=O)[C@H](CC(C)C)NC(=O)[C@H](CCCCN)NC(=O)[C@@H](N)CCCN=C(N)N)[C@@H](C)O)C(C)C)C(=O)O [RKLPDAPGMHTWGGGGRCAVLSCLPKEQI]
[23]
  MIC: ≥ 294 µM
[24]
  MIC: ≥ 208 µM
[21]
  MIC: ≥ 227 µM

## CC[C@H](C)[C@H](NC(=O)[C@H](CCCN=C(N)N)NC(=O)[C@H](CCCN=C(N)N)NC(=O)[C@H](CC(C)C)NC(=O)[C@@H](N)Cc1c[nH]c2ccccc12)C(=O)N[C@@H](CCCCN)C(=O)N[C@@H](C)C(=O)N[C@@H](Cc1c[nH]c2ccccc12)C(=O)N[C@@H](CC(C)C)C(=O)N[C@@H](CCCN=C(N)N)C(=O)N[C@@H](CCCN=C(N)N)C(=O)N[C@@H](CCCCN)C(=O)N[C@@H](CCCN=C(N)N)C(=O)N[C@@H](CCCCN)C(=O)O [WLRRIKAWLRRKRK]
[25]
  MIC: 16 µM (≈ 31.5 µg/mL)
[26]
  MIC: 4 µM (≈ 7.87 µg/mL)
[27]
  MIC: 16 µM (≈ 31.5 µg/mL)
[28]
  MIC: 8 µM (≈ 15.7 µg/mL)
[29]
  MIC: ≥ 32 µM
[30]
  MIC: 16 µM (≈ 31.5 µg/mL)
[31]
  MIC: 16 µM (≈ 31.5 µg/mL)
[32]
  MIC: 16 µM (≈ 31.5 µg/mL)
[33]
  MIC: 4 µM (≈ 7.87 µg/mL)
[34]
  MIC: 16 µM (≈ 31.5 µg/mL)
[35]
  MIC: 16 µM (≈ 31.5 µg/mL)
[36]
  MIC: 16 µM (≈ 31.5 µg/mL)
[37]
  MIC: ≥ 64 µM
[38]
  MIC: 8 µM (≈ 15.7 µg/mL)
[39]
  MIC: ≥ 32 µM
[40]
  MIC: 16 µM (≈ 31.5 µg/mL)
[41]
  MIC: 8 µM (≈ 15.7 µg/mL)
[42]
  MIC: 8 µM (≈ 15.7 µg/mL)
[43]
  MIC: 4 µM (≈ 7.87 µg/mL)

## CC[C@H](C)[C@H](NC(=O)[C@H](CCCN=C(N)N)NC(=O)[C@H](CCCN=C(N)N)NC(=O)[C@H](CC(C)C)NC(=O)[C@H](CCCN=C(N)N)NC(=O)[C@H](Cc1c[nH]c2ccccc12)NC(=O)[C@@H](N)Cc1c[nH]c2ccccc12)C(=O)N[C@@H](Cc1c[nH]c2ccccc12)C(N)=O [WWRLRRIW]
[44]
  MIC: 12.5 µM (≈ 15.9 µg/mL)
[45]
  MIC: 25 µM (≈ 31.8 µg/mL)
[46]
  MIC: 25 µM (≈ 31.8 µg/mL)
[13]
  MIC: 12.5 µM (≈ 15.9 µg/mL)
[14]
  MIC: 12.5 µM (≈ 15.9 µg/mL)
